The subject of the assay is P388 leukemia ip, CD2F1 mice, survival T/C. The assay is described as follows: NCI In Vivo Anticancer Drug Screen. Data for tumor model P388 Leukemia (intraperitoneal) in CD2F1 (CDF1) mice. Particulars: endpoint: median survival time, higher = longer survival. The method, boiled down: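 Mice carrying the transplanted tumor received test compound or vehicle. Survival was recorded in each group, and the value is the treated-group measurement divided by that of the vehicle-treated control group.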

Where [1] appears, read: dose: 25.0 mg/kg/injection, schedule: Q01DX009 (ip), vehicle: saline.
Where [2] appears, read: dose: 50.0 mg/kg/injection, schedule: Q01DX009 (ip), vehicle: saline.
Setting [3] is: dose: 100.0 mg/kg/injection, schedule: Q01DX001 (ip), vehicle: saline with Tween-80.
The mark [4] stands for this setting: dose: 200.0 mg/kg/injection, schedule: Q01DX001 (ip), vehicle: saline with Tween-80.
Where [5] appears, read: dose: 400.0 mg/kg/injection, schedule: Q01DX001 (ip), vehicle: saline with Tween-80.
[6] abbreviates: dose: 60.0 mg/kg/injection, schedule: Q01DX005 (ip), vehicle: saline with Tween-80.
Setting [7] is: dose: 120.0 mg/kg/injection, schedule: Q01DX005 (ip), vehicle: saline with Tween-80.
[8] abbreviates: dose: 240.0 mg/kg/injection, schedule: Q01DX005 (ip), vehicle: saline with Tween-80.
Setting [9] is: dose: 100.0 mg/kg/injection, schedule: Q01DX009 (ip), vehicle: saline.

Values joined by “and” are separate entries in the source; they are usually repeats but may differ in a detail not shown here. Equal entries are not always repeated. Toxic doses and inconclusive results are not listed.

`CNC(=O)Oc1ccc[nH]c1=O`: the T/C is, setting by setting: (dose: 16.0 mg/kg/injection, schedule: Q01DX009 (ip), vehicle: saline with Tween-80) 106 % of control and 110 % of control; under setting [1], 106 % of control and 112 % of control; (dose: 25.0 mg/kg/injection, schedule: Q01DX009 (sc), vehicle: saline) 102 % of control and 109 % of control; (dose: 32.0 mg/kg/injection, schedule: Q01DX009 (ip), vehicle: saline with Tween-80) 112 % of control and 122 % of control; under setting [2], 116 % of control and 120 % of control; (dose: 50.0 mg/kg/injection, schedule: Q01DX009 (sc), vehicle: saline) 109 % of control and 115 % of control. Also, the T/C is 120 % of control (dose: 64.0 mg/kg/injection, schedule: Q01DX009 (ip), vehicle: saline with Tween-80); 111 % of control and 113 % of control (dose: 100.0 mg/kg/injection, schedule: Q01DX009 (sc), vehicle: saline); 120 % of control (dose: 128.0 mg/kg/injection, schedule: Q01DX009 (ip), vehicle: saline with Tween-80); 115 % of control and 120 % of control (dose: 200.0 mg/kg/injection, schedule: Q01DX009 (sc), vehicle: saline); 153 % of control (dose: 400.0 mg/kg/injection, schedule: Q01DX009 (ip), vehicle: saline); 122 % of control (dose: 400.0 mg/kg/injection, schedule: Q01DX009 (sc), vehicle: saline).
Regarding `c1ccc(C2=NN(c3ccccc3)C3(c4ccccc4)CCCN23)cc1` (configuration not stated), the T/C by setting is: under setting [3], 108 % of control; under setting [4], 97 % of control; under setting [5], 95 % of control.
Consider `NC(CSC(c1ccccc1)(c1ccccc1)c1ccc2ccccc2c1)C(=O)O` (configuration not stated), for which the T/C is 186 % of control (dose: 3.13 mg/kg/injection, schedule: Q01DX009 (ip), vehicle: saline with Tween-80); 169 % of control (dose: 3.13 mg/kg/injection, schedule: Q01DX009 (ip), vehicle: water); 198 % of control (dose: 6.25 mg/kg/injection, schedule: Q01DX009 (ip), vehicle: saline with Tween-80); 189 % of control (dose: 6.25 mg/kg/injection, schedule: Q01DX009 (ip), vehicle: water); 261 % of control (dose: 12.5 mg/kg/injection, schedule: Q01DX009 (ip), vehicle: saline with Tween-80); 216 % of control (dose: 12.5 mg/kg/injection, schedule: Q01DX009 (ip), vehicle: water). Further, the T/C is, setting by setting: (dose: 25.0 mg/kg/injection, schedule: Q01DX009 (ip), vehicle: saline with Tween-80) 90 % of control; (dose: 25.0 mg/kg/injection, schedule: Q01DX009 (ip), vehicle: water) 99 % of control.
With `Nc1nnc2nc(C(C(=O)c3ccccc3Cl)c3nc4nnc(N)n4[nH]c3=O)c(=O)[nH]n12`, the T/C runs as follows: under setting [6], 101 % of control; under setting [7], 98 % of control; under setting [8], 99 % of control.
Regarding `OCCCN1CNC(=S)NC1`, the T/C was 106 % of control and 111 % of control (dose: 12.5 mg/kg/injection, schedule: Q01DX009 (ip), vehicle: saline); 100 % of control and 105 % of control under setting [1]; 100 % of control and 97 % of control under setting [2]; 99 % of control and 102 % of control under setting [9].
Regarding `O=C(O)/C(=C\c1c(Cl)[nH]c2ccccc12)NC(=O)c1ccccc1`, the T/C reads like this: under setting [3], 103 % of control; under setting [4], 99 % of control; under setting [5], 98 % of control.
With `O=C1c2c(-c3ccccc3)ccc(-c3ccccc3)c2C2(O)OC1(O)c1c(-c3ccccc3)ccc(-c3ccccc3)c1C2=O`, the T/C reads like this: (dose: 50.0 mg/kg/injection, schedule: Q01DX005 (ip), vehicle: Klucel (hydroxypropylcellulose) (HPC)) 94 % of control; (dose: 100.0 mg/kg/injection, schedule: Q01DX005 (ip), vehicle: Klucel (hydroxypropylcellulose) (HPC)) 90 % of control; (dose: 200.0 mg/kg/injection, schedule: Q01DX005 (ip), vehicle: Klucel (hydroxypropylcellulose) (HPC)) 92 % of control.
For `CC(O)C(=O)NCO` (configuration not stated), the T/C by setting is: (dose: 50.0 mg/kg/injection, schedule: Q01DX005 (ip), vehicle: saline) 104 % of control; (dose: 100.0 mg/kg/injection, schedule: Q01DX005 (ip), vehicle: saline) 100 % of control; (dose: 200.0 mg/kg/injection, schedule: Q01DX005 (ip), vehicle: saline) 100 % of control.
For `COc1cc2c(C)c3ccccc3c(C)c2c2ccccc12`, the T/C (dose: 100.0 mg/kg/injection, schedule: Q01DX001 (ip), vehicle: Klucel (hydroxypropylcellulose) (HPC)) was 101 % of control; the T/C (dose: 200.0 mg/kg/injection, schedule: Q01DX001 (ip), vehicle: Klucel (hydroxypropylcellulose) (HPC)) is 110 % of control; the T/C (dose: 400.0 mg/kg/injection, schedule: Q01DX001 (ip), vehicle: Klucel (hydroxypropylcellulose) (HPC)) is 105 % of control.
As to `CC(C)(O)/C=C/C(=O)[C@](C)(O)[C@H]1[C@H](O)C[C@@]2(C)[C@@H]3CC=C4[C@@H](C=C(O)C(=O)C4(C)C)[C@]3(C)C(=O)C[C@]12C`, the T/C is 112 % of control (dose: 0.25 mg/kg/injection, schedule: Q01DX005 (ip), vehicle: water); 100 % of control (dose: 0.25 mg/kg/injection, schedule: Q01DX010 (ip), vehicle: saline); 100 % of control (dose: 0.5 mg/kg/injection, schedule: Q01DX005 (ip), vehicle: water); 104 % of control (dose: 0.5 mg/kg/injection, schedule: Q01DX010 (ip), vehicle: saline); 105 % of control (dose: 1.0 mg/kg/injection, schedule: Q01DX005 (ip), vehicle: water); 109 % of control (dose: 1.0 mg/kg/injection, schedule: Q01DX010 (ip), vehicle: saline). Moreover, the T/C (dose: 2.0 mg/kg/injection, schedule: Q01DX005 (ip), vehicle: water) was 105 % of control.
For the compound `C[C@@]12CCCC[C@@H]1Nc1ccccc12`, the T/C was 98 % of control under setting [6], 100 % of control under setting [7] and 97 % of control under setting [8].
`CCN(CC)CCN(C)C(=O)C(O)(c1ccccc1)c1ccccc1`: the T/C is, setting by setting: under setting [1], 100 % of control; under setting [2], 104 % of control; under setting [9], 104 % of control; (dose: 200.0 mg/kg/injection, schedule: Q01DX009 (ip), vehicle: saline) 100 % of control.
For the compound `CC(=O)/C(=C\c1ccc([N+](=O)[O-])cc1)C(=O)CCN(C)C`, the T/C by setting is: (dose: 30.0 mg/kg/injection, schedule: Q01DX005 (ip), vehicle: saline) 118 % of control; (dose: 60.0 mg/kg/injection, schedule: Q01DX005 (ip), vehicle: saline) 121 % of control and 123 % of control.
On to `CCn1c2ccc(NC(=O)OC(C)C)cc2c2c3[nH]c(=O)c4cccn4c3ccc21`, for which the T/C under setting [3] was 87 % of control, the T/C under setting [4] is 87 % of control and the T/C under setting [5] is 92 % of control.
For the compound `Cc1cccc(CC(C)(O)Cc2cccc(C)n2)n1`, the T/C (dose: 50.0 mg/kg/injection, schedule: Q01DX009 (ip), vehicle: other) was 100 % of control; the T/C (dose: 100.0 mg/kg/injection, schedule: Q01DX009 (ip), vehicle: other) is 100 % of control; the T/C (dose: 200.0 mg/kg/injection, schedule: Q01DX009 (ip), vehicle: other) is 122 % of control.
As to `[C-]#[O+].[Cl][Ru]([Cl])([Cl])([Cl])[Cl]`, the T/C runs as follows: (dose: 12.5 mg/kg/injection, schedule: Q04DX003 (ip), vehicle: water) 108 % of control; (dose: 25.0 mg/kg/injection, schedule: Q04DX003 (ip), vehicle: water) 96 % of control; (dose: 50.0 mg/kg/injection, schedule: Q04DX003 (ip), vehicle: water) 105 % of control.

The values are drawn from PubChem BioAssay AID330 (DTP/NCI, 2004).
